From patent US10689381B2 (priority 2017, dated 2020)
pIC50: −log10 of the molar value.

Tests used:
L1210 = assay: cells; format: cell-based, mouse; conditions: Table 6
Outline: (§1)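 Cells seeded at 30,000 cells/mL in DMEM with 10% FBS, then exposed for 72 h to compound at six concentrations spanning 0–1000 nM or 0–10000 nM, in duplicate. Final incubation at 37 °C lasted 5 min for L1210 and 15 min for HCT116.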

HCT116 = assay: cells; format: cell-based, human; conditions: Table 6; read-out: IC50 HCT116
Outline: as §1

SMILES | pIC50 (L1210) | pIC50 (HCT116)
CCC1(NC(=O)c2ccc3c(c2)CCO3)CC2CN(CCc3c([nH]c4ccccc34)C(C(=O)OC)(c3cc4c(cc3OC)N(C)C3C(O)(C(=O)OC)C(OC(C)=O)C5(CC)C=CCN6CCC43C65)C2)C1 (stereo not shown) [Compound 161] | 9.52 | 9.60
CC[C@]1(NC(=O)c2ccc3ccsc3c2)C[C@H]2CN(CCc3c([nH]c4ccccc34)[C@@](C(=O)OC)(c3cc4c(cc3OC)N(C)[C@H]3[C@@](O)(C(=O)OC)[C@H](OC(C)=O)[C@]5(CC)C=CCN6CC[C@]43[C@@H]65)C2)C1 [Compound 162] | 8.51 | 8.54
CCC1(NC(=O)c2ccc3sccc3c2)CC2CN(CCc3c([nH]c4ccccc34)C(C(=O)OC)(c3cc4c(cc3OC)N(C)C3C(O)(C(=O)OC)C(OC(C)=O)C5(CC)C=CCN6CCC43C65)C2)C1 (stereo not shown) [Compound 163] | 8.38 | 8.31
CC[C@]1(NC(=O)c2csc3ccccc23)C[C@H]2CN(CCc3c([nH]c4ccccc34)[C@@](C(=O)OC)(c3cc4c(cc3OC)N(C)[C@H]3[C@@](O)(C(=O)OC)[C@H](OC(C)=O)[C@]5(CC)C=CCN6CC[C@]43[C@@H]65)C2)C1 [Compound 164] | 8.28 | 8.24
CC[C@]1(NC(=O)c2cc3ccccc3s2)C[C@H]2CN(CCc3c([nH]c4ccccc34)[C@@](C(=O)OC)(c3cc4c(cc3OC)N(C)[C@H]3[C@@](O)(C(=O)OC)[C@H](OC(C)=O)[C@]5(CC)C=CCN6CC[C@]43[C@@H]65)C2)C1 [Compound 165] | 8.51 | 8.72
CCC1(NC(=O)c2ccc3c(c2)ncn3C)CC2CN(CCc3c([nH]c4ccccc34)C(C(=O)OC)(c3cc4c(cc3OC)N(C)C3C(O)(C(=O)OC)C(OC(C)=O)C5(CC)C=CCN6CCC43C65)C2)C1 (stereo not shown) [Compound 166] | 9.15 | 9.22
CC[C@]1(NC(=O)c2ccc3ncoc3c2)C[C@H]2CN(CCc3c([nH]c4ccccc34)[C@@](C(=O)OC)(c3cc4c(cc3OC)N(C)[C@H]3[C@@](O)(C(=O)OC)[C@H](OC(C)=O)[C@]5(CC)C=CCN6CC[C@]43[C@@H]65)C2)C1 [Compound 167] | 9.22 | 9.22
CCC1(NC(=O)c2ccc3ocnc3c2)CC2CN(CCc3c([nH]c4ccccc34)C(C(=O)OC)(c3cc4c(cc3OC)N(C)C3C(O)(C(=O)OC)C(OC(C)=O)C5(CC)C=CCN6CCC43C65)C2)C1 (stereo not shown) [Compound 168] | 8.27 | 8.29
CC[C@]1(NC(=O)c2nc3ccccc3o2)C[C@H]2CN(CCc3c([nH]c4ccccc34)[C@@](C(=O)OC)(c3cc4c(cc3OC)N(C)[C@H]3[C@@](O)(C(=O)OC)[C@H](OC(C)=O)[C@]5(CC)C=CCN6CC[C@]43[C@@H]65)C2)C1 [Compound 169] | 7.22 | 7.22
CC[C@]1(NC(=O)c2ccc3ncsc3c2)C[C@H]2CN(CCc3c([nH]c4ccccc34)[C@@](C(=O)OC)(c3cc4c(cc3OC)N(C)[C@H]3[C@@](O)(C(=O)OC)[C@H](OC(C)=O)[C@]5(CC)C=CCN6CC[C@]43[C@@H]65)C2)C1 [Compound 170] | 9.30 | 9.22
CC[C@]1(NC(=O)c2ccc3scnc3c2)C[C@H]2CN(CCc3c([nH]c4ccccc34)[C@@](C(=O)OC)(c3cc4c(cc3OC)N(C)[C@H]3[C@@](O)(C(=O)OC)[C@H](OC(C)=O)[C@]5(CC)C=CCN6CC[C@]43[C@@H]65)C2)C1 [Compound 171] | 9.22 | 9.15
CCC1(NC(=O)c2nc3ccccc3s2)CC2CN(CCc3c([nH]c4ccccc34)C(C(=O)OC)(c3cc4c(cc3OC)N(C)C3C(O)(C(=O)OC)C(OC(C)=O)C5(CC)C=CCN6CCC43C65)C2)C1 (stereo not shown) [Compound 172] | 6.74 | 7.10
CCC1(NC(=O)c2ccc3c(c2)OCO3)CC2CN(CCc3c([nH]c4ccccc34)C(C(=O)OC)(c3cc4c(cc3OC)N(C)C3C(O)(C(=O)OC)C(OC(C)=O)C5(CC)C=CCN6CCC43C65)C2)C1 (stereo not shown) [Compound 174] | 9.22 | 9.10
CCC1(NC(=O)c2ccc3c(c2)OCCO3)CC2CN(CCc3c([nH]c4ccccc34)C(C(=O)OC)(c3cc4c(cc3OC)N(C)C3C(O)(C(=O)OC)C(OC(C)=O)C5(CC)C=CCN6CCC43C65)C2)C1 (stereo not shown) [Compound 175] | 9.22 | 9.30
CCC1(NC(=O)c2ccc3c(c2)OCCN3C)CC2CN(CCc3c([nH]c4ccccc34)C(C(=O)OC)(c3cc4c(cc3OC)N(C)C3C(O)(C(=O)OC)C(OC(C)=O)C5(CC)C=CCN6CCC43C65)C2)C1 (stereo not shown) [Compound 176] | 9.52 | 9.52
CCC1(NC(=O)c2ccc3c(c2)CCN3)CC2CN(CCc3c([nH]c4ccccc34)C(C(=O)OC)(c3cc4c(cc3OC)N(C)C3C(O)(C(=O)OC)C(OC(C)=O)C5(CC)C=CCN6CCC43C65)C2)C1 (stereo not shown) [Compound 177] | 8.29 | 8.17
CC[C@]1(NC(=O)c2ccc3c(c2)CCN3C(=O)OC(C)(C)C)C[C@H]2CN(CCc3c([nH]c4ccccc34)[C@@](C(=O)OC)(c3cc4c(cc3OC)N(C)[C@H]3[C@@](O)(C(=O)OC)[C@H](OC(C)=O)[C@]5(CC)C=CCN6CC[C@]43[C@@H]65)C2)C1 [Compound 178] | 7.46 | 7.82
